Assay results published in ChEMBL document CHEMBL1134886, “Synthesis of [(2S,3S,4R)-3,4-dihydroxypyrrolidin-2-yl]-5-methylfuran-4-carboxylic acid derivatives: new leads as selective beta-galactosidase inhibitors” (Bioorg Med Chem Lett, 2002).
The source made the active and inactive calls. The calls are words filed in the database; no cut-off is given here.

Key:
[1] = system: Prunus dulcis; experiment: Inhibitor concentration against alpha-Mannosidases from Almond was tested at a dose of 1 mM
[2] = molecular target: T1, Beta-galactosidase (Aspergillus niger) (UniProt P29853); experiment: Inhibitor concentration against Beta-galactosidase from Aspergillus niger was tested at a dose of 1 mM; NI means no inhibition
T1 sequence (whole entry): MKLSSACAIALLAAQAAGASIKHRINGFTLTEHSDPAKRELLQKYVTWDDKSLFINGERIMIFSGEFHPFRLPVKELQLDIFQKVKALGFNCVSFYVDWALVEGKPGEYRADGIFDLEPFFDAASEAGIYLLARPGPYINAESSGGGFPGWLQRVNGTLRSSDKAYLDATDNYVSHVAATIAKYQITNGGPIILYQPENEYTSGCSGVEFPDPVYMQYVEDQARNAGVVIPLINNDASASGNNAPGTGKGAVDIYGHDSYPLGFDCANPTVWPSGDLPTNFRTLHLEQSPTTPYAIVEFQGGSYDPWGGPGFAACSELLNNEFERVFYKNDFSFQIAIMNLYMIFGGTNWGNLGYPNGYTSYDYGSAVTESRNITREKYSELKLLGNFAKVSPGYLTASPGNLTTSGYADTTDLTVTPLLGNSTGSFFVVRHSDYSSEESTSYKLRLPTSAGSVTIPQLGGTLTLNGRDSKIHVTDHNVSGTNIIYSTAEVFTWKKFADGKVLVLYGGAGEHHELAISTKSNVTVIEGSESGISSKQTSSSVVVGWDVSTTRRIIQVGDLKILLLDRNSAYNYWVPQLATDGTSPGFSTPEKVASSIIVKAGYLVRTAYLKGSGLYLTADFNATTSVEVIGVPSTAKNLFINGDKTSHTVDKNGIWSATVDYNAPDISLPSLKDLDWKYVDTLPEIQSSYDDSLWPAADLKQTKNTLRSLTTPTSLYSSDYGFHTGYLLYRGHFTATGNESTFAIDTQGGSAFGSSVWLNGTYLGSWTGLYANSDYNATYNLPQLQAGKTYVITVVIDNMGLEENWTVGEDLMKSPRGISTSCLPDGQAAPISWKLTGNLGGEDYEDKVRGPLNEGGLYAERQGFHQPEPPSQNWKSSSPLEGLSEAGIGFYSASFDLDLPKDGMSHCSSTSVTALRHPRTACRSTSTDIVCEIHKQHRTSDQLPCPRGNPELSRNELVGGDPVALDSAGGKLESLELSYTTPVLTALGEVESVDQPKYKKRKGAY

[3] = molecular target: Beta-galactosidase (Escherichia coli) (UniProt Q8VNN2); experiment: Inhibitor concentration against Beta-galactosidase from Escherichia coli was tested at a dose of 1 mM; NI means no inhibition
[4] = molecular target: Alpha-galactosidase (Coffea arabica) (UniProt Q42656); experiment: Compound was tested for Percent inhibition of Alpha-galactosidase from Coffee bean at a dose of 1 mM
[5] = system: Aspergillus niger; experiment: Inhibitor concentration against Amyloglucosidases from Aspergillus niger was tested at a dose of 1 mM; NI means no inhibition
[6] = molecular target: T2, Beta-galactosidase (Bos taurus) (UniProt Q58D55); experiment: Compound was tested for Percent inhibition of Beta-galactosidase from Bovine liver at a dose of 1 mM
T2 sequence (whole entry): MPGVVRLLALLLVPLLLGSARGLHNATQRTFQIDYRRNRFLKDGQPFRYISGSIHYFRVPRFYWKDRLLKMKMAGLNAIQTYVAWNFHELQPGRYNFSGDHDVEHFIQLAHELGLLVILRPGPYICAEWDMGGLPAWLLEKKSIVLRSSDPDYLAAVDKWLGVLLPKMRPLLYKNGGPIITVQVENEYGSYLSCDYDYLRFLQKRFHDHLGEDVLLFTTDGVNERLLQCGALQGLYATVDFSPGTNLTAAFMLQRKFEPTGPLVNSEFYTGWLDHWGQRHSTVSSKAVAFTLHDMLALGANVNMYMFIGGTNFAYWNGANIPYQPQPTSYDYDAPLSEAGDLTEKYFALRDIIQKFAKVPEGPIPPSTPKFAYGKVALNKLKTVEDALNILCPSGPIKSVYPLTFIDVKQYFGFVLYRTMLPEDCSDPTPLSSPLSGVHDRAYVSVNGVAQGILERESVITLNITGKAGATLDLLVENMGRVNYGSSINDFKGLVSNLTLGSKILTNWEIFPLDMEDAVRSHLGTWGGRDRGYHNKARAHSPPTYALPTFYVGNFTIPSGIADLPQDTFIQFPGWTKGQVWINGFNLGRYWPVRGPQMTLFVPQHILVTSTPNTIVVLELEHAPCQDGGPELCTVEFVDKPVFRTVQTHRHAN

[7] = system: Prunus dulcis; experiment: Inhibitor concentration against alpha-Mannosidases from Almonds was tested at a dose of 1 mM
[8] = system: Canavalia ensiformis; experiment: Compound was tested for Percent inhibition of alpha-Mannosidases from Jack beans at a dose of 1 mM
[9] = molecular target: T3, Tissue alpha-L-fucosidase (Homo sapiens) (UniProt P04066); experiment: Compound was tested for Percent inhibition of alpha-L-Fucosidase from Human placenta at a dose of 1 mM
T3 sequence (whole entry): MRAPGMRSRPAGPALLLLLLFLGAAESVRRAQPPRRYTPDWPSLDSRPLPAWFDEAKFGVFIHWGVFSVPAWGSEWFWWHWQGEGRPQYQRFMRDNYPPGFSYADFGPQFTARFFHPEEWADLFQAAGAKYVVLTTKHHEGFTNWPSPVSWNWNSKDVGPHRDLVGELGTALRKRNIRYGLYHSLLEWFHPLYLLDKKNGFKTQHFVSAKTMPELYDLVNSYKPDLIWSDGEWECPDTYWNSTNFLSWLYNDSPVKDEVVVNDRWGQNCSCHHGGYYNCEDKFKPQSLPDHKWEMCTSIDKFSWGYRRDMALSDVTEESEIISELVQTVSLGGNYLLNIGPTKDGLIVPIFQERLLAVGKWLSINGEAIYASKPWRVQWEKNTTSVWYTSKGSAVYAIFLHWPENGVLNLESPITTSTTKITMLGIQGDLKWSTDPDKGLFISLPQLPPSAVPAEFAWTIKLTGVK

[10] = molecular target: Alpha-galactosidase (Coffea arabica) (UniProt Q42656); experiment: Compound showed Non competitive inhibition against Alpha-galactosidase from coffee bean; NI means no inhibition at a dose of 1 mM
[11] = system: Prunus dulcis; experiment: Inhibition of alpha-Mannosidases from Almonds was tested at a dose of 1 mM
[12] = molecular target: T1, Beta-galactosidase (Aspergillus niger); experiment: Compound was tested for Percent inhibition of Beta-galactosidase from Aspergillus niger at a dose of 1 mM
[13] = molecular target: T4, Beta-galactosidase (Bos taurus, UniProt Q58D55); experiment: Inhibitor concentration against Beta-galactosidase from Bovine liver
T4 sequence (Q58D55 whole entry): T2 sequence (whole entry)

[14] = molecular target: T5, Beta-galactosidase (Aspergillus niger, UniProt P29853); experiment: Inhibition constant(Non competitive) of compound against Beta-galactosidase from Aspergillus niger
T5 sequence (P29853 whole entry): T1 sequence (whole entry)

[15] = molecular target: T5, Beta-galactosidase; experiment: Inhibitor concentration against Beta-galactosidase from Aspergillus niger
[16] = molecular target: Beta-galactosidase (Escherichia coli) (UniProt Q8VNN2); experiment: Compound was tested for Percent inhibition of Beta-galactosidase from Escherichia coli at a dose of 1 mM
[17] = system: Rhizopus; experiment: Compound was tested for Percent inhibition of Amyloglucosidases from Rhizopus mold; NI means no inhibition
[18] = system: Prunus dulcis; experiment: Inhibitor concentration against alpha-Mannosidases from Almond was tested at a dose of 1 mM; NI means no inhibition
[19] = molecular target: alpha-galactosidase (Escherichia coli) (UniProt P06720); experiment: Inhibitor concentration against alpha-Galactosidase from Escherichia coli was tested at a dose of 1 mM; NI means no inhibition
[20] = molecular target: Beta-galactosidase (Escherichia coli) (UniProt Q8VNN2); experiment: Inhibitor concentration against Beta-galactosidase from was Escherichia coli tested at a dose of 1 mM; NI means no inhibition
[21] = molecular target: T1, Beta-galactosidase (Aspergillus niger); experiment: Compound was tested for Percent inhibition of Beta-galactosidase from Aspergillus niger; conditions: concentration not given here
[22] = system: Rhizopus; experiment: Inhibitor concentration against Amyloglucosidases from Rhizopus mold was tested at a dose of 1 mM; NI means no inhibition
[23] = molecular target: T5, Beta-galactosidase; experiment: Inhibitor concentration against Beta-galactosidase from Aspergillus niger was tested at a dose of 1 mM
[24] = system: Prunus dulcis; experiment: Inhibition of alpha-Mannosidases from Almond was tested at a dose of 1 mM; NI means no inhibition
[25] = molecular target: Alpha-galactosidase (Coffea arabica) (UniProt Q42656); experiment: Inhibitor concentration against Alpha-galactosidase from Coffee beans was tested at a dose of 1 mM; NI means no inhibition

Sequence of Alpha-galactosidase (Coffea arabica) (Q42656 whole entry, looked up): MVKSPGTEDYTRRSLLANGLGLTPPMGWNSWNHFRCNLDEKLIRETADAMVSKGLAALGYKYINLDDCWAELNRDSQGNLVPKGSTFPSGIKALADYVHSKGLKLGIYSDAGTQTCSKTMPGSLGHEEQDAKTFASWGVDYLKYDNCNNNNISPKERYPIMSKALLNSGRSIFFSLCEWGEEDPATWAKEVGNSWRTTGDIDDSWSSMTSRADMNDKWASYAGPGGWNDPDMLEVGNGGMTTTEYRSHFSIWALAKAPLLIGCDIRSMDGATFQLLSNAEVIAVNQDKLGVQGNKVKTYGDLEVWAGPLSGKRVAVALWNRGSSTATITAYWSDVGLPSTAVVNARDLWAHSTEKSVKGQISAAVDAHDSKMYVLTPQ
Sequence of Beta-galactosidase (Escherichia coli) (Q8VNN2 whole entry, looked up): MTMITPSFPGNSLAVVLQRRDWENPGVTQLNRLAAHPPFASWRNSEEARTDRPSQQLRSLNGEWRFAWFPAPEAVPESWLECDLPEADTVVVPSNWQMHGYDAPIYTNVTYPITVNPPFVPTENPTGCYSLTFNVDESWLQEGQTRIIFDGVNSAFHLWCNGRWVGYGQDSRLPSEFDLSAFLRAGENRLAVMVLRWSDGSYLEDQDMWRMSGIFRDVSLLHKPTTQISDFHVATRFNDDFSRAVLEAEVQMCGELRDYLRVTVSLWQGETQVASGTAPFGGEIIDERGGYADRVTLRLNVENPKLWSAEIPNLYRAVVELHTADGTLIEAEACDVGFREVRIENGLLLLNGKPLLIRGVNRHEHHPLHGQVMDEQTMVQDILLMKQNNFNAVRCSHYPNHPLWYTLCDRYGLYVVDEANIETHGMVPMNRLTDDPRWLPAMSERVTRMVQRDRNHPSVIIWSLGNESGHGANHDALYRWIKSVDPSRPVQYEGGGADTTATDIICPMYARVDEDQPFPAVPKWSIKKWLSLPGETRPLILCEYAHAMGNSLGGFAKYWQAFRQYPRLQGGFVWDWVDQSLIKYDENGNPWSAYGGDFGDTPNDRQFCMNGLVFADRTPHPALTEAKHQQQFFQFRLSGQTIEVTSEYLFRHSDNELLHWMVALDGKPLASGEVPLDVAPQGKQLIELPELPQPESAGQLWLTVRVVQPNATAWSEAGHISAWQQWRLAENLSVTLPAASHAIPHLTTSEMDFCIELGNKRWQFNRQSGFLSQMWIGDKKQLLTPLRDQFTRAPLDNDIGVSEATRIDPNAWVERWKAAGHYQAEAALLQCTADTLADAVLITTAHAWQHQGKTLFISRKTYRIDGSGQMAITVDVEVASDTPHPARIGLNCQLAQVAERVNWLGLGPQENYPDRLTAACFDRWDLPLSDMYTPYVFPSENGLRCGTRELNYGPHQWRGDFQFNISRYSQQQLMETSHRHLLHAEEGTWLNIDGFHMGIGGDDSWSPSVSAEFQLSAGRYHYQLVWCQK
Sequence of alpha-galactosidase (Escherichia coli) (P06720 whole entry, looked up): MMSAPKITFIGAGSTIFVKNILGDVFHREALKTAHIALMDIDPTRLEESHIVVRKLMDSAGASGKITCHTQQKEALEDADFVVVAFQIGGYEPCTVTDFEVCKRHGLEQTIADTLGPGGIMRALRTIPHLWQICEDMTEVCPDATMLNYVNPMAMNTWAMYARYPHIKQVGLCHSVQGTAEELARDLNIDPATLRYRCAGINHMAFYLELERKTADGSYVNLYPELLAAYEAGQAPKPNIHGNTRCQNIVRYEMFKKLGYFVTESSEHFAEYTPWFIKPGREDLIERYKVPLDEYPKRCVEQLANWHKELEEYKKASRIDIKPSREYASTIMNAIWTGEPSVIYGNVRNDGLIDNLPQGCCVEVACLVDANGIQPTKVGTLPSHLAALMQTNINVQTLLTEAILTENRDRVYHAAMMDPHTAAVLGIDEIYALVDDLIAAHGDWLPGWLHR

Row | SMILES | inhibition [3] | inhibition [5] | inhibition [6] [%] | inhibition [8] [%] | inhibition [9] [%] | inhibition [12] [%] | IC50 [13] [µM] | inhibition [16] [%] | inhibition [17] | further results
1 | Cc1oc([C@@H]2NC[C@@H](O)[C@H]2O)cc1C(=O)NC(C)C | inactive | 23% | 38 |  |  |  |  |  |  | inhibition [1]: 9%; inhibition [2]: inactive; inhibition [4]: 29%
2 | CCOC(=O)c1cc([C@@H]2NC[C@@H](O)[C@H]2O)oc1C |  | inactive | 57 | 38 | 76 | 80 |  |  |  | inhibition [18]: inactive; inhibition [19]: inactive
3 | Cc1oc([C@H]2NC[C@@H](O)[C@H]2O)cc1C(=O)NC(C)C |  | inactive | 49 |  | 39 |  | 1000 |  |  | inhibition [20]: inactive; inhibition [21]: 79%; inhibition [22]: inactive; IC50 [23]: 250 µM

More lines, main results first:

Row | inhibition [3] | inhibition [5] | inhibition [6] [%] | inhibition [8] [%] | inhibition [9] [%] | inhibition [12] [%] | IC50 [13] [µM] | inhibition [16] [%] | inhibition [17] | SMILES | further results
4 | inactive | inactive | 58 | 27 | 91 |  |  |  |  | CCN(CC)C(=O)c1cc([C@@H]2NC[C@@H](O)[C@H]2O)oc1C | inhibition [7]: 31%
5 |  | inactive | 90 | 37 |  | 96 | 42 | 33 | inactive | CCN(CC)C(=O)c1cc([C@H]2NC[C@@H](O)[C@H]2O)oc1C | inhibition [10]: No inhibition; inhibition [11]: 38%; Ki [14]: 30 µM; IC50 [15]: 28 µM
6 |  | inactive | 78 | 49 |  | 99 |  | 83 | inactive | CCOC(=O)c1cc([C@H]2NC[C@@H](O)[C@H]2O)oc1C | inhibition [24]: 37%; Ki [25]: Not Active
